Measurements published in ChEMBL document CHEMBL1201862, “PubChem BioAssay data set” (2004).
Calls of active or inactive are those of the source.

What was measured:
[1] = target: Botulinum neurotoxin type F (Clostridium botulinum, UniProt P30996); assay: High-throughput multiplex microsphere dose response for inhibitors of toxin protease, specifically Botulinum neurotoxin light chain F protease, compounds from Cherry Pick 02.; assay type: functional; details: read-out: EC50_MICROM
[2] = NIH:OVCAR-3 ovarian cancer cell cytotoxicity, dose response, PAX8 inhibitor project, plate reader, dry powder samples (AID 743044); assay type: functional, cell-based
[3] = cytotoxicity in OVCAR8 ovarian cancer cells, dose response, PAX8 project, cell-based, plate reader, dry powder samples (AID 743197); assay type: functional; details: OVCAR-8
[4] = IGROV1 ovarian cancer cell cytotoxicity, dose response, PAX8 inhibitor project, plate reader, dry powder samples (AID 743043); assay type: functional, cell-based; details: IGROV-1
Paired box protein Pax-8 = Paired box protein Pax-8 (Homo sapiens, UniProt Q06710); assay: inhibitors of PAX8-driven TPO luciferase reporter, dose response, RMG-I cells, cherry-pick (AID 687027); assay type: functional, cell-based;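 also: luciferase reporter driven by Pax8 target thyroperoxidase promoter measured by SteadyGlo luminescence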
Paired box protein Pax-8, sequence (Q06710 whole entry): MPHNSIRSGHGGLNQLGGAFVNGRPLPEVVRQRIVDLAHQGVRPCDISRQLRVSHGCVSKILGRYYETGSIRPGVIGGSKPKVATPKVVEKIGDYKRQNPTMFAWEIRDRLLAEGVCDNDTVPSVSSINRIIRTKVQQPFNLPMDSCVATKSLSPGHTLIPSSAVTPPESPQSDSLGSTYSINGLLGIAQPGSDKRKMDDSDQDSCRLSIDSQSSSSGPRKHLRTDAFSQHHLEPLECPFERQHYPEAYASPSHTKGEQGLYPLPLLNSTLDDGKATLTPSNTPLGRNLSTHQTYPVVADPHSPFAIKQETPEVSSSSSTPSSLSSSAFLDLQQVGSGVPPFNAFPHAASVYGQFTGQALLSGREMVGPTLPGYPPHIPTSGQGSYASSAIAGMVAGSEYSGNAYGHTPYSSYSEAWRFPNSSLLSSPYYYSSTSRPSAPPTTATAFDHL

[5] = IOSE-T80 ovarian epithelial cell cytotoxicity, dose response, cytotoxicity control for PAX8 inhibitor project, plate reader, dry powder samples (AID 743045); assay type: functional, cell-based
[6] = A2780 ovarian cancer cell cytotoxicity, dose response, cytotoxicity control, plate reader, dry powder samples (AID 743046); assay type: functional, cell-based
[7] = HIV Env cell-cell fusion inhibitors, dose response, HIV entry, plate reader, dry powder (AID 687023); assay type: functional, cell-based
[8] = inhibitors of non-replicating M. tuberculosis, dose response, luciferase, dry powder (AID 651620); assay type: functional; details: Mycobacterium tuberculosis
[9] = cytotoxicity in HeLa cells, dose response, cytotoxicity control, cell-based, plate reader, dry powder (AID 651946); assay type: functional
[10] = inhibitors of non-replicating M. tuberculosis, dose response, luciferase, dry powder (AID 651619); assay type: functional; details: Mycobacterium tuberculosis
[11] = growth inhibition of replicating M. tuberculosis, dose response, counter-screen, dry powder, IC90 (AID 651617); assay type: functional; details: Mycobacterium tuberculosis
[12] = HEK293T cytotoxicity, dose response, cytotoxicity control for miR-122 modulator project, cell-based, inhibitor set, cherry-pick, set 2 (AID 720697); assay type: functional
[13] = HEK293 cell cytotoxicity, dose response, cytotoxicity control, cherry-picks, set 5 (AID 1053117); assay type: functional, cell-based
[14] = HepG2 cell cytotoxicity, dose response, cytotoxicity control, cherry-picks, set 5 (AID 1053118); assay type: functional, cell-based
[15] = inhibitors of fibronectin matrix deposition, dose response, AH1F cells, Alexa488-FN fluorescence, cherry-picks (AID 1035475); assay type: functional, cell-based
[16] = T. cruzi intracellular amastigote growth inhibition, dose response, imaging, CA-I/72 strain, bovine embryo skeletal muscle, dry powder (AID 651885); assay type: functional, cell-based
[17] = T. cruzi growth inhibition in host cells, dose response, cell-based, plate reader, dry powder, set 2 (AID 652275); assay type: functional
[18] = growth inhibition of intracellular T. cruzi, dose response, cell-based, plate reader, dry powder samples (AID 651845); assay type: functional

Botulinum neurotoxin type F, sequence (P30996 1-436 limits assumed): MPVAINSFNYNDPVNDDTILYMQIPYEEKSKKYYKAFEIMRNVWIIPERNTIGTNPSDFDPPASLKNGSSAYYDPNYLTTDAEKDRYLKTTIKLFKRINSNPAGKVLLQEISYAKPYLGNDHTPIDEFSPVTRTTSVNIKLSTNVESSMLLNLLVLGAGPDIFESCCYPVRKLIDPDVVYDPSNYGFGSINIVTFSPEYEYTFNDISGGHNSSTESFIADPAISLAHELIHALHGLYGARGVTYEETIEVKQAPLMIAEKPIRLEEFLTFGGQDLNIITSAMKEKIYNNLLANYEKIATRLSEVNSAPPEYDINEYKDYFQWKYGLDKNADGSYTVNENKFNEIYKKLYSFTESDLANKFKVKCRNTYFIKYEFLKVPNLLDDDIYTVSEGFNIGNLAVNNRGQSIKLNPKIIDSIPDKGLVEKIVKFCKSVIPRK

COc1ccc(C(CNC(=O)c2cc(S(=O)(=O)N3CCCCC3)ccc2C)N2CCCC2)cc1 (configuration not stated)
EC50 [1]: > 20 µM (inactive)

C[C@H]1CCCCO[C@H](CN(C)Cc2ccc(C(F)(F)F)cc2)[C@@H](C)CN([C@@H](C)CO)C(=O)c2cc(NC(=O)Cc3ccccc3)ccc2O1
AC50 [2]: 29.7 µM (active) | AC50 [3]: 53 µM (active) | AC50 [4]: 31.9 µM (active) | AC50 (Paired box protein Pax-8): 7.6 µM (active)

COc1ccc(-c2ccc3c(c2)[C@@H]2[C@@H](CCN2C(=O)NC2CCCCC2)[C@H](CO)N3C)cc1
AC50 [2]: 49.5 µM (active) | AC50 [5]: 46.8 µM (active) | AC50 [3]: > 60 µM (inactive) | AC50 [6]: 32.8 µM (active) | AC50 (Paired box protein Pax-8): 10.7 µM (active)

CCOc1ccc(OCC)c(S(=O)(=O)NCc2ccncc2)c1
AC50 [7]: > 70 µM (inactive)

[O-][S+](Cc1ccccc1)c1nnc(-c2ccccc2)o1 (configuration not stated)
IC90 [8]: 1 µM (active) | AC50 [9]: 32.2 µM (active) | IC90 [10]: 1 µM (active) | IC90 [11]: 31 µM (active)

CCCNC(=O)Nc1ccc2c(c1)C(=O)N(C)[C@@H]1CC[C@@H](CC(=O)NCC3CCCCC3)O[C@@H]1CO2
AC50 [12]: 0.456 µM (active)

C[C@H](CO)N1C[C@H](C)[C@H](CN(C)Cc2ccc(-c3ccccc3)cc2)Oc2ccc(NC(=O)CCCN(C)C)cc2C1=O
AC50 [13]: 12.7 µM (active) | AC50 [14]: 11.8 µM (active) | AC50 [15]: 30.8 µM (active)

C[C@@H]1CN([C@@H](C)CO)C(=O)c2cccc(NC(=O)c3ccncc3)c2O[C@H]1CN(C)Cc1ccc2c(c1)OCO2
IC50 [16]: 0.0565 µM (active) | AC50 [17]: 0.017 µM (active) | AC50 [18]: 0.0571 µM (active)
